One data set has as its target PPARα (Homo sapiens (Human), UniProt Q07869). Briefly: Activation of transient transfected PPAR α in HEK293 cells (GAL4-hPPAR α luciferase assay). Format: cell-based. The conditions noted are these: HEK293 transfected with GAL4-hPPAR α, 24 h incubation. The protocol:
Test example 1: Experiment of the compounds on activation of transient transfected PPAR α in HEK293 cells
Plasmid: pcDNA3.1(+)-GAL4-hPPAR α, customized by Nanjing Kebai Biotechnology Co., Ltd.
(§1) Liposome: PGL4.35, customized by Nanjing Kebai Biotechnology Co., Ltd.
(§2) Cell: human embryonic kidney cells HEK293, purchased from ATCC.
(§3) Transfection reagent: Lipofectamine Reagent 3000 purchased from Invitrogen.
(§4) Assay kit: Bright Glo™ Luciferase Assay System purchased from Promega.
(§5) HEK293 cells were incubated in DMEM medium containing 10% of fetal bovine serum at 37° C. in the presence of 5% of CO2. 3×10^5/ml cells were plated in each well of the 6-well plate. When the cell convergence degree reached 50%-80%, 5 μg of liposome PGL4.35 and 5 μg of expression plasmid pcDNA3.1(+)-GAL4-hPPAR α were added to transfect the cells for 24 h and then the cells were collected. The transfected cells were plated in the 96-well plate and the compounds of the application in different concentrations were added, incubated for 24 h, and Bright Glo™ Luciferase Assay System reagent was added for luciferase assay.

For a further data set, the target named is PPARδ (Homo sapiens (Human), UniProt Q03181). Briefly: Activation of transient transfected PPAR δ in HEK293 cells (GAL4-hPPAR δ luciferase assay). The conditions noted are these: HEK293 transfected with GAL4-hPPAR δ, 24 h incubation. The format is cell-based. The protocol: Test Example 2: Experiment of the Compounds on Activation of Transient Transfected PPAR δ in HEK293 Cells
Plasmid: pcDNA3.1(+)-GAL4-hPPAR δ, customized by Nanjing Kebai Biotechnology Co., Ltd.
as §1, §2, §3, §4
as §5, with “δ” for “α”, “Then, the” for “The”, “reagent” for “reagent was added”, “assay was added.” for “assay.”

Data set [1] in a line: Cytotoxicity test on HepG2 cells (CellTiter Glo). Format: cell-based. The conditions noted are these: human, incubated for 3 days. On the procedure:
(§6) Test Example 4: Cytotoxicity Test of Compound on HepG2 & Hek293 Cells
(§7) Cells: human hepatocyte HepG2, purchased from ATCC; Human embryonic kidney cells HEK293: purchased from ATCC;
(§8) Assay reagent: CellTiter Glo® Luminescent Cell Viability Assay, purchased from Promega.
(§9) HepG2 and HEK293 cells were incubated in DMEM/F12 medium containing 10% of fetal bovine serum respectively. A proper amount of cells were plated into a 96-well plate, the plate was placed in an incubator overnight, and the culture medium was removed, and replaced with a complete culture medium containing the compound of the application, and incubated for 3 days. On day 4, an assay reagent CellTiter Glo was added to each well, and the relative luminous unit (RLU) of each well was determined by chemiluminescence. CC50 values of the compound of the application to HepG2 and HEK293 cells were calculated by GraphPad software, and the results were shown in Table 3.
On the technique in general: Cellular ATP, detected with luciferase, serves as a proxy for viable cell number.

Data set [2] can be described thus: Cytotoxicity test on HEK293 cells (CellTiter Glo). The format is cell-based. The conditions noted are these: human, incubated for 3 days. The protocol:
as §6, §7, §8, §9

The target in data set [3] is hERG potassium ion channel (Homo sapiens (Human), UniProt Q12809). In words: Predictor hERG fluorescence polarization. Format: binding. On the procedure:
Test Example 5: In Vitro Safety Test
The effect of the compound on hERG potassium ion channel was tested by Predictor™ hERG fluorescence polarization.

The test system of data set [4] is MCD model of non-alcoholic steatohepatitis. Briefly: In vivo efficacy study in the MCD model of non-alcoholic steatohepatitis. On the set-up: species or system C57 Mice. The conditions noted are these: MCD diet mice. On the procedure:
Test Example 6: In Vivo Efficacy Study of Compound in the MCD Model of Non-Alcoholic Steatohepatitis In this example, comparative test between compound GFT505 from WO2018133705A1 and compounds of the invention was conducted, so as to show the advantages of compounds of the invention. C57 Mice at 8-10 weeks of age (purchased from Vital River Laboratories) were body-weight matched and randomly divided into groups of normal, model, control and test. Mice in normal group were fed with standard chow for 9 weeks. Mice in model group, control group and test group were fed with MCD diet (Methionine-Choline Deficient Diet, Research Diets) for 9 weeks to induce NASH Model. During weeks 5-9 of the 9-week course of MCD diet, the control group and the test group were treated with GFT505 and TM4 of the invention, respectively, and the normal group and model group were treated with 0.5% MC. The dosage regimen was specified in table 5. [table] Animals were dissected after administration on day 35, livers were collected for H&E staining (hematoxylin-eosin staining) and sirius red staining. And then NAFLD activity score, including liver steatosis score, inflammation score and ballooning score, and liver fibrosis score were conducted.

Where [5] appears, read: 1 mg/kg intragastric once every day for 35 days.
[6] abbreviates: 1 mg/kg, 35 days, result in words.

This is an account of results in US11261170B2, “Aromatic compound, pharmaceutical composition and use thereof” (Sichuan Kelun-Biotech Biopharmaceutical Co., Ltd., priority 2017, dated 2022).

What is called EC50 is the midpoint of the concentration-response curve. Lower therefore signals a more potent agent. A word on the CC50: it is the concentration giving 50% cytotoxicity. The term IC50 denotes the concentration that gives 50% inhibition.

PPARδ, sequence (Q03181 whole entry, looked up, the tested form may be a part): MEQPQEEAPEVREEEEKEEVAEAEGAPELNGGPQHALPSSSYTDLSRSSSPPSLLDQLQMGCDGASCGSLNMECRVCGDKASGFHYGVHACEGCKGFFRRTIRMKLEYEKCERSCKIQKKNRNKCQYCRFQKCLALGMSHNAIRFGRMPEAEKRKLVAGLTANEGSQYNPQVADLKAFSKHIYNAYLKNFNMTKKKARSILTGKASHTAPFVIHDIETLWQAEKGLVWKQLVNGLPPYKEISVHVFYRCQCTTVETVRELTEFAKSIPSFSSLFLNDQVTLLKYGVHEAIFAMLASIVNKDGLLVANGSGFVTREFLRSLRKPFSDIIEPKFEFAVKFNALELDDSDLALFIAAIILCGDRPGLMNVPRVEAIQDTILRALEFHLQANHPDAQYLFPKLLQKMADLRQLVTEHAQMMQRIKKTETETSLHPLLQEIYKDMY
PPARα, sequence (Q07869 whole entry, looked up, the tested form may be a part): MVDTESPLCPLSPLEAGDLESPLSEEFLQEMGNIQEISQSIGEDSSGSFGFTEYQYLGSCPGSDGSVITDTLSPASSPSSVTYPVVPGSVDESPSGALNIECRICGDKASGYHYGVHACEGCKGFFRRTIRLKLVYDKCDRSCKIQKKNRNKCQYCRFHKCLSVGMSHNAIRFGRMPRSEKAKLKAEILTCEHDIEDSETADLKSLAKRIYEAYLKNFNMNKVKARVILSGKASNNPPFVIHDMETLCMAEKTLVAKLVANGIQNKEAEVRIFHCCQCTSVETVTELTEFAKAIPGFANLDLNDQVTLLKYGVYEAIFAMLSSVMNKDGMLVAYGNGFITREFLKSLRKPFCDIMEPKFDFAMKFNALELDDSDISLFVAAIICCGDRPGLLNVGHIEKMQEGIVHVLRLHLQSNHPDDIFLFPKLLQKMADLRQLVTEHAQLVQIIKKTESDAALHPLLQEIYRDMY
hERG potassium ion channel, sequence (Q12809 whole entry): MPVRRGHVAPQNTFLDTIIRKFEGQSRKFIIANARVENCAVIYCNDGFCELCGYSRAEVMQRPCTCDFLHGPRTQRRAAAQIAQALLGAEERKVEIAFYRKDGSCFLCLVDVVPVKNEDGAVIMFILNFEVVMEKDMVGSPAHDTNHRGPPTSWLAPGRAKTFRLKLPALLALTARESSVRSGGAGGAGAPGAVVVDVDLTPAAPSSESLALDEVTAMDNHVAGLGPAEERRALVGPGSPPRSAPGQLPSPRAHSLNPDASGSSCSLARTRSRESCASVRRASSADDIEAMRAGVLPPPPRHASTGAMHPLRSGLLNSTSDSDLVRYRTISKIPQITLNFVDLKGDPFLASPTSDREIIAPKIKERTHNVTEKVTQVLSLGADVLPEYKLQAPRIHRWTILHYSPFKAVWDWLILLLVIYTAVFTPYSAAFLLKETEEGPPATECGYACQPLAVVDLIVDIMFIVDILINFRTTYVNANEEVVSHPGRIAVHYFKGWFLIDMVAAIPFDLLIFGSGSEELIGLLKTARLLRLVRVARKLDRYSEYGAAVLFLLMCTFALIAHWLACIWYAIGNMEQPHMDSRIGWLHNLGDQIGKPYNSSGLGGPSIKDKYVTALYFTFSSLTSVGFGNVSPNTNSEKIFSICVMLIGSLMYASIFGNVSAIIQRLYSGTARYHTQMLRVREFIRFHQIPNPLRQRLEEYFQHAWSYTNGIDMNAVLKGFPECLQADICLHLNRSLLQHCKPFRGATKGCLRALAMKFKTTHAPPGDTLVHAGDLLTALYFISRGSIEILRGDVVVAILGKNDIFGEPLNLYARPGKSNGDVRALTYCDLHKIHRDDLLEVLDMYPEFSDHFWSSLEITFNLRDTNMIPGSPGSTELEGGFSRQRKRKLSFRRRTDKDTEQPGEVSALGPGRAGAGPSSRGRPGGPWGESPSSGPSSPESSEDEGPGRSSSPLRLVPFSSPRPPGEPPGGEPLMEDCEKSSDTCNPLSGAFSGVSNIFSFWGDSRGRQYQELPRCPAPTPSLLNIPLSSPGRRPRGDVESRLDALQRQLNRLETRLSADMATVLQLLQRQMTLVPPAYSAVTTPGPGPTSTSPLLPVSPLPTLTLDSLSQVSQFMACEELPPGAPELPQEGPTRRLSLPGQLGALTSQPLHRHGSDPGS

On to `Cc1cc(/C=C/C(=O)c2cc3ccccc3s2)cc(C)c1OC(C)(C)C(=O)O` [Example 2, (E)-2-(4-(3-(benzo [b]thien-2-yl)-3-oxo-1-propen-1-yl)-2,6-dimethylphenoxy)-2-methylpropionic acid], for which the values for the EC50 at PPARα and at PPARδ were 1210 nM and 6130 nM, respectively. In addition, the 50% cytotoxic concentration (CC50) at 3 days in data set [1] is approximately 7270 nM; in data set [2], approximately 8140 nM. For the same molecule, the half-inhibitory concentration (IC50) in data set [3] was 8240 nM.

As to `Cc1cc(/C=C/C(=O)c2cnc3ccccc3c2)cc(C)c1OC(C)(C)C(=O)O` [Example 3, (E)-2-(4-(3-(quinolin-3-yl)-3-oxo-1-propen-1-yl)-2,6-dimethylphenoxy)-2-methylpropionic acid], the response on PPARα was half-maximal at 1930 nM (EC50). The concentration for half-maximal inhibition (IC50) in data set [3] is more than 10000 nM.

Consider `Cc1cc(/C=C/C(=O)c2cc3ccccc3nc2Cl)cc(C)c1OC(C)(C)C(=O)O` [Example 4, (E)-2-(4-(3-(2-chloroquinolin-3-yl)-3-oxo-1-propen-1-yl)-2,6-dimethylphenoxy)-2-methyl propionic acid], for which the figures for the half-maximal effective concentration (EC50) at PPARα and on PPARδ were 278 nM and 3440 nM, respectively. The 50% cytotoxic concentration (CC50) at 3 days in data set [1] was 11300 nM; in data set [2], 13600 nM. For the same molecule, the concentration for half-maximal inhibition (IC50) in data set [3] was more than 10000 nM.

Consider `COCCOc1nc2ccccc2cc1C(=O)/C=C/c1cc(C)c(OC(C)(C)C(=O)O)c(C)c1` [Example 6, (E)-2-(4-(3-(2-(2-methoxyethoxy)quinolin-3-yl)-3-oxo-1-propen-1-yl)-2,6-dimethylphenoxy)-2-methylpropionic acid], for which the EC50 at PPARα came out at 52.8 nM; on PPARδ it was 374 nM. In addition, the CC50 at 3 days in data set [1] and in data set [2] was more than 10000 nM each time. Also, in data set [3], the IC50 was more than 10000 nM.

Molecule `Cc1cc(/C=C/C(=O)c2cc3ccccc3nc2C)cc(C)c1OC(C)(C)C(=O)O` [Example 7, (E)-2-(4-(3-(2-methylquinolin-3-yl)-3-oxo-1-propen-1-yl)-2,6-dimethylphenoxy)-2-methylpropionic acid] displayed a 50% effective concentration (EC50) at PPARα of 752 nM. Further, the cytotoxic concentration (CC50) at 3 days in data set [1] and in data set [2] was more than 10000 nM throughout.

In turn, `Cc1cc(/C=C/C(=O)c2cc3ccccc3nc2C(F)(F)F)cc(C)c1OC(C)(C)C(=O)O` [Example 8, (E)-2-(4-(3-(2-trifluoromethylquinolin-3-yl)-3-oxo-1-propen-1-yl)-2,6-dimethylphenoxy)-2-methylpropionic acid] gave an EC50 at PPARα of 692 nM. Also, the half-maximal cytotoxic concentration (CC50) at 3 days in data set [1] and in data set [2] was more than 10000 nM in each case. In data set [3], the 50% inhibitory concentration (IC50) was more than 10000 nM.

For the molecule `Cc1cc(/C=C/C(=O)c2cc3ccccc3nc2N(C)C)cc(C)c1OC(C)(C)C(=O)O` [Example 9, (E)-2-(4-(3-(2-dimethylaminoquinolin-3-yl)-3-oxo-1-propen-1-yl)-2,6-dimethylphenoxy)-2-methylpropionic acid], the IC50 in data set [3] was more than 10000 nM.

Take `Cc1cc(/C=C/C(=O)c2cc3ccccc3nc2N2CCCC2)cc(C)c1OC(C)(C)C(=O)O` [Example 10, (E)-2-(4-(3-(2-(1-pyrrolidinyl)quinolin-3-yl)-3-oxo-1-propen-1-yl)-2,6-dimethylphenoxy)-2-methylpropionic acid]: the EC50 on PPARα is 77 nM; on PPARδ, 2510 nM. Moreover, in data set [3], the IC50 was more than 10000 nM.

With `Cc1cc(/C=C/C(=O)c2cc3ccccc3nc2N2CCOCC2)cc(C)c1OC(C)(C)C(=O)O` [Example 11, (E)-2-(4-(3-(2-(morpholin-4-yl)quinolin-3-yl)-3-oxo-1-propen-1-yl)-2,6-dimethylphenoxy)-2-methylpropionic acid], the EC50 on PPARα is 585 nM; on PPARδ, 4430 nM.

For `CSc1nc2ccccc2cc1C(=O)/C=C/c1cc(C)c(OC(C)(C)C(=O)O)c(C)c1` [Example 17, (E)-2-(4-(3-(2-methylthioquinolin-3-yl)-3-oxo-1-propen-1-yl)-2,6-dimethylphenoxy)-2-methylpropionic acid], a half-maximal response at PPARα (EC50) required 123 nM. The IC50 in data set [3] is more than 10000 nM.

Take `COc1ccc2cc(C(=O)/C=C/c3cc(C)c(OC(C)(C)C(=O)O)c(C)c3)c(Cl)nc2c1` [Example 18, (E)-2-(4-(3-(2-chloro-7-methoxy-quinolin-3-yl)-3-oxo-1-propen-1-yl)-2,6-dimethylphenoxy)-2-methylpropionic acid]: the half-maximal effective concentration (EC50) is 8.62 nM at PPARα and 810 nM at PPARδ. Also, in data set [3], the IC50 is more than 10000 nM.

In the case of `COc1ccc2cc(C(=O)/C=C/c3cc(C)c(OC(C)(C)C(=O)O)c(C)c3)c(OC)nc2c1` [Example 19, (E)-2-(4-(3-(2,7-dimethoxy-quinolin-3-yl)-3-oxo-1-propen-1-yl)-2,6-dimethylphenoxy)-2-methylpropionic acid], the results for the half-maximal effective concentration (EC50) on PPARα and at PPARδ were 1.33 nM and 796 nM, respectively. Further, the IC50 in data set [3] was more than 10000 nM.

With `COc1ccc2nc(Cl)c(C(=O)/C=C/c3cc(C)c(OC(C)(C)C(=O)O)c(C)c3)cc2c1` [Example 20, (E)-2-(4-(3-(2-chloro-6-methoxy-quinolin-3-yl)-3-oxo-1-propen-1-yl)-2,6-dimethylphenoxy)-2-methylpropionic acid], it took 460 nM to reach a half-maximal effect on PPARα (EC50).

As for `COc1ccc2nc(OC)c(C(=O)/C=C/c3cc(C)c(OC(C)(C)C(=O)O)c(C)c3)cc2c1` [Example 21, (E)-2-(4-(3-(2,6-dimethoxy-quinolin-3-yl)-3-oxo-1-propen-1-yl)-2,6-dimethylphenoxy)-2-methylpropionic acid], the EC50 stood at 5.4 nM on PPARα and 675 nM on PPARδ. Moreover, in data set [3], the IC50 is more than 10000 nM.

As to `CSc1ccc(C(=O)/C=C/c2cc(C)c(OC(C)(C)C(=O)O)c(C)c2)cc1` [GFT505, reference compound], in data set [4] (setting [5]), the “Liver fibrosis score (Mean ± SD)” value came out at 1.22 ± 0.44 and the “NAFLD activity score (Mean ± SD)” value is listed as 3.33 ± 0.87. Further, in data set [4] (setting [6]), the “Reduction of NAFLD activity score compared with model group” value is reported as “not statistically significant” and the “Reduction of liver fibrosis score compared with model group” value was “not statistically significant”.
